From PubChem BioAssay AID192 (DTP/NCI, 2004)
“And” between values parts separate entries of the source, which are not always exact repeats. Identical values can stand only once. Toxic doses and inconclusive results are not listed. How the source made its calls: active means survival T/C of 150% or more; inactive means T/C below 125% in these data.

Tested on: BDF1 mice, B16 melanoma ip, median survival T/C
Assay: NCI In Vivo Anticancer Drug Screen. Data for tumor model B16 Melanoma (intraperitoneal) in B6D2F1 (BDF1) mice
Details: endpoint: median survival time, higher = longer survival
Procedure, shortened: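 Transplantable tumor model; survival or tumor size measured; reported as T/C, treated over vehicle control.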

[1] = dose: 100.0 mg/kg/injection, schedule: Q01DX009 (ip), vehicle: saline with Tween-80
[2] = dose: 200.0 mg/kg/injection, schedule: Q01DX009 (ip), vehicle: saline with Tween-80
[3] = dose: 400.0 mg/kg/injection, schedule: Q01DX009 (ip), vehicle: saline with Tween-80
[4] = dose: 100.0 mg/kg/injection, schedule: Q04DX003 (ip), vehicle: Klucel (hydroxypropylcellulose) (HPC)
[5] = dose: 100.0 mg/kg/injection, schedule: Q01DX009 (ip), vehicle: Klucel (hydroxypropylcellulose) (HPC)
[6] = dose: 200.0 mg/kg/injection, schedule: Q01DX009 (ip), vehicle: Klucel (hydroxypropylcellulose) (HPC)
[7] = dose: 50.0 mg/kg/injection, schedule: Q01DX009 (ip), vehicle: Klucel (hydroxypropylcellulose) (HPC)
[8] = dose: 0.75 mg/kg/injection, schedule: Q01DX009 (ip), vehicle: Klucel (hydroxypropylcellulose) (HPC)
[9] = dose: 1.5 mg/kg/injection, schedule: Q01DX009 (ip), vehicle: Klucel (hydroxypropylcellulose) (HPC)
[10] = dose: 25.0 mg/kg/injection, schedule: Q01DX009 (ip), vehicle: Klucel (hydroxypropylcellulose) (HPC)
[11] = dose: 6.25 mg/kg/injection, schedule: Q01DX009 (ip), vehicle: Klucel (hydroxypropylcellulose) (HPC)
[12] = dose: 12.5 mg/kg/injection, schedule: Q01DX009 (ip), vehicle: Klucel (hydroxypropylcellulose) (HPC)

Measured: T/C

CCOC(=O)CCCc1c[nH]c2ccccc12
inactive: [1] 107 % of control | dose: 100.0 mg/kg/injection, schedule: Q04DX003 (ip), vehicle: saline with Tween-80 109 % of control | [2] 115 % of control | dose: 200.0 mg/kg/injection, schedule: Q04DX003 (ip), vehicle: saline with Tween-80 93 % of control | [3] 107 % of control | dose: 400.0 mg/kg/injection, schedule: Q04DX003 (ip), vehicle: saline with Tween-80 95 % of control

NC(=O)C1(N2CCCC2)CCN(Cc2ccccc2)CC1
inactive: dose: 25.0 mg/kg/injection, schedule: Q04DX003 (ip), vehicle: Klucel (hydroxypropylcellulose) (HPC) 105 % of control | dose: 50.0 mg/kg/injection, schedule: Q04DX003 (ip), vehicle: Klucel (hydroxypropylcellulose) (HPC) 94 % of control | [4] 100 % of control

CC(=O)CC(=O)Nc1ccc(C(=O)O)c(O)c1
inactive: [5] 86 % of control | [6] 89 % of control

O=C(O)C1c2ccccc2Cc2ccccc21
inactive: dose: 37.5 mg/kg/injection, schedule: Q04DX003 (ip), vehicle: Klucel (hydroxypropylcellulose) (HPC) 122 % of control | [7] 97 % of control | dose: 75.0 mg/kg/injection, schedule: Q04DX003 (ip), vehicle: Klucel (hydroxypropylcellulose) (HPC) 119 % of control | [5] 100 % of control | dose: 150.0 mg/kg/injection, schedule: Q04DX003 (ip), vehicle: Klucel (hydroxypropylcellulose) (HPC) 119 % of control | [6] 105 % of control

NNS(=O)(=O)c1ccc(OCC(=O)O)cc1
inactive: [5] 98 % of control | [6] 97 % of control | dose: 400.0 mg/kg/injection, schedule: Q01DX009 (ip), vehicle: Klucel (hydroxypropylcellulose) (HPC) 93 % of control

COCC(=O)CC(C)=O
inactive: dose: 75.0 mg/kg/injection, schedule: Q01DX009 (ip), vehicle: Klucel (hydroxypropylcellulose) (HPC) 122 % of control | dose: 150.0 mg/kg/injection, schedule: Q01DX009 (ip), vehicle: Klucel (hydroxypropylcellulose) (HPC) 113 % of control | dose: 300.0 mg/kg/injection, schedule: Q01DX009 (ip), vehicle: Klucel (hydroxypropylcellulose) (HPC) 105 % of control

CC/C(C)=C1\OC(=O)C(C)C(O)C(Cc2cccnc2)NC(=O)C(NC(=O)c2ncccc2O)C(C)OC1=O (stereo unspecified)
inactive: [8] 118 % of control | [9] 98 % of control | dose: 3.0 mg/kg/injection, schedule: Q01DX009 (ip), vehicle: Klucel (hydroxypropylcellulose) (HPC) 99 % of control | dose: 6.25 mg/kg/injection, schedule: Q01DX009 (ip), vehicle: saline with Tween-80 87 % of control | dose: 12.5 mg/kg/injection, schedule: Q01DX009 (ip), vehicle: saline with Tween-80 97 % of control | dose: 25.0 mg/kg/injection, schedule: Q01DX009 (ip), vehicle: saline with Tween-80 96 % of control

O=C(Nc1ccc(NC2=NCCN2)cc1)c1cccc(C(=O)Nc2ccc(NC3=NCCN3)cc2)c1
inactive: dose: 7.5 mg/kg/injection, schedule: Q01DX009 (ip), vehicle: saline with Tween-80 105 % of control | dose: 7.5 mg/kg/injection, schedule: Q04DX003 (ip), vehicle: saline with Tween-80 100 % of control | dose: 15.0 mg/kg/injection, schedule: Q01DX009 (ip), vehicle: saline with Tween-80 92 % of control | dose: 15.0 mg/kg/injection, schedule: Q04DX003 (ip), vehicle: saline with Tween-80 88 % of control | dose: 30.0 mg/kg/injection, schedule: Q04DX003 (ip), vehicle: saline with Tween-80 100 % of control

COc1ccc(C(C(N)=O)N2CCOCC2)cc1 (stereo unspecified)
inactive: [10] 92 % of control | [7] 89 % of control | [5] 87 % of control | [4] 92 % of control | [6] 86 % of control | dose: 200.0 mg/kg/injection, schedule: Q04DX003 (ip), vehicle: Klucel (hydroxypropylcellulose) (HPC) 95 % of control | dose: 400.0 mg/kg/injection, schedule: Q04DX003 (ip), vehicle: Klucel (hydroxypropylcellulose) (HPC) 95 % of control

O=c1oc(-c2ccc(Cl)cc2)nc2cc(Cl)ccc12
inactive: [11] 99 % of control | [12] 93 % of control | [10] 105 % of control and 106 % of control

CCNC(Cc1ccccc1)C1CCCO1 (stereo unspecified)
inactive: dose: 6.25 mg/kg/injection, schedule: Q01DX009 (ip), vehicle: saline 122 % of control | dose: 12.5 mg/kg/injection, schedule: Q01DX009 (ip), vehicle: saline 120 % of control | dose: 25.0 mg/kg/injection, schedule: Q01DX009 (ip), vehicle: saline 115 % of control | dose: 50.0 mg/kg/injection, schedule: Q01DX009 (ip), vehicle: saline 115 % of control | dose: 100.0 mg/kg/injection, schedule: Q01DX009 (ip), vehicle: saline 100 % of control

CCCCCCCCCCCCCCCCCCNC(=O)Nc1cc(C)ccc1C
inactive: dose: 25.0 mg/kg/injection, schedule: Q01DX009 (ip), vehicle: gum acacia 100 % of control | dose: 50.0 mg/kg/injection, schedule: Q01DX009 (ip), vehicle: gum acacia 93 % of control | dose: 100.0 mg/kg/injection, schedule: Q01DX009 (ip), vehicle: gum acacia 107 % of control

CN(C)c1ccc(C(N)=O)cn1
inactive: [9] 124 % of control

CCN(C(=O)Nc1cccc(Cl)c1)c1ccccc1
inactive: [1] 102 % of control | [2] 100 % of control | [3] 110 % of control

COC(=O)c1cc([N+](=O)[O-])cc([N+](=O)[O-])c1Br
inactive: dose: 0.37 mg/kg/injection, schedule: Q01DX009 (ip), vehicle: Klucel (hydroxypropylcellulose) (HPC) 95 % of control | [8] 101 % of control | [9] 88 % of control

O=C(NNc1ccccc1)c1ccccc1
inactive: [11] 97 % of control | [12] 97 % of control | [10] 93 % of control | [7] 91 % of control

O=[N+]([O-])c1ccc(Cl)c([N+](=O)[O-])c1
inactive: dose: 5.0 mg/kg/injection, schedule: Q01DX009 (ip), vehicle: saline with Tween-80 100 % of control and 112 % of control | dose: 10.0 mg/kg/injection, schedule: Q01DX009 (ip), vehicle: saline with Tween-80 94 % of control and 99 % of control | dose: 20.0 mg/kg/injection, schedule: Q01DX009 (ip), vehicle: saline with Tween-80 99 % of control and 102 % of control | dose: 40.0 mg/kg/injection, schedule: Q01DX009 (ip), vehicle: saline with Tween-80 98 % of control and 107 % of control | dose: 80.0 mg/kg/injection, schedule: Q01DX009 (ip), vehicle: saline with Tween-80 100 % of control and 108 % of control

Cc1ccccc1OS(=O)(=O)c1cccc([N+](=O)[O-])c1
inactive: [1] 113 % of control | [2] 113 % of control | [3] 107 % of control
